Laboratory results: patent EP4029501A1, “COMBINATION OF POLYAROMATIC UREA DERIVATIVES AND GLUCOCORTICOID OR HDAC INHIBITOR FOR THE TREATMENT OF DISEASES OR CONDITIONS ASSOCIATED WITH MUSCLE CELLS AND/OR SATELLITE CELLS” (Anagenesis Biotechnologies, priority 2021, dated 2022)
Structures can show the parent of a compound that is named as a salt.

Tested on: muscle progenitors derived from DMD hiPSC
Assay: Myotube assay: total myotube area per well (alpha-actinin staining)
Format: cell-based, human
Settings: Homo sapiens, Myotube, 72 h, DMD or WT cell source not given; for Emax: efficacy, MA = normalized Myotube Area, 3 days incubation; for EC50: myogenic activity, half-maximal generation of myotubes, 10 points dose-response 1.5 nM to 30 µM, 3 days
Outline: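 DMD hiPSC-derived muscle progenitors (NCRM-1 background) plated at 3500 cells/well in K5 medium with 5 µM Y-27632, then exposed to compound at 1.5 nM–30 µM for 3 days at 37°C. Cells fixed on day 7, alpha-actinin-immunostained and total myotube area per well quantified; duplicates averaged, EC50 and normalized myotube area derived.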

`CCOC(=O)Nc1cc(Oc2ccc(NC(=O)Nc3cc(C(C)(C)C)no3)c3ccccc23)ccn1` [(db), ethyl (4-((4-(3-(3-(tert-butyl)isoxazol-5-yl)ureido)naphthalen-1-yl)oxy)pyridin-2-yl)carbamate] showed an Emax of at least 75% and an EC50 of under 500 nM.
Work on `CSc1cc(Oc2ccnc3c2CCCN3)ccc1NC(=O)Nc1cc(C(C)(C)C)nn1-c1ccccc1` [(be), 1-(3-(tert-butyl)-1-phenyl-1H-pyrazol-5-yl)-3-(2-(methylthio)-4-((5,6,7,8-tetrahydro-1,8-naphthyridin-4-yl)oxy)phenyl)urea] yielded an Emax of at least 75% and an EC50 of 1000 to 5000 nM.
`CC(C)(C)c1cnc(NC(=O)Nc2ccc(Oc3ccnc4[nH]c(=O)cnc34)c3ccccc23)s1` [(ba), 1-(5-(tert-butyl)thiazol-2-yl)-3-(4-((3-oxo-3,4-dihydropyrido[2,3-b]pyrazin-8-yl)oxy)naphthalen-1-yl)urea] showed an Emax of at least 75% and an EC50 of under 500 nM.
`CCOC(=O)Nc1cc(Oc2ccc(NC(=O)Nc3cc(C(C)(C)C)on3)c(SC)c2)ccn1` [(di), ethyl (4-(4-(3-(5-(tert-butyl)isoxazol-3-yl)ureido)-3-(methylthio)phenoxy)pyridin-2-yl)carbamate] gave an Emax of at least 75% and an EC50 of under 500 nM.
Compound `CSc1cc(Oc2ccnc3[nH]c(=O)cnc23)ccc1NC(=O)Nc1cc(C(C)(C)C)nn1-c1ccccc1Cl` [(at), 1-(3-(tert-butyl)-1-(2-chlorophenyl)-1H-pyrazol-5-yl)-3-(2-(methylthio)-4-((3-oxo-3,4-dihydropyrido[2,3-b]pyrazin-8-yl)oxy)phenyl)urea] has an Emax of at least 75% and an EC50 of at least 5000 nM.
For `CC(C)(C)c1cc(NC(=O)Nc2ccc(Oc3ccnc4[nH]c(=O)cnc34)cc2C(F)(F)F)n(-c2ccccc2)n1` [(v), 1-(3-(tert-butyl)-1-phenyl-1H-pyrazol-5-yl)-3-(4-((3-oxo-3,4-dihydropyrido[2,3-b]pyrazin-8-yl)oxy)-2-(trifluoromethyl)phenyl)urea], the Emax was at least 75% and the EC50 was under 500 nM.
In the case of `CSc1cc(Oc2ccnc3[nH]c(=O)cnc23)ccc1NC(=O)Nc1cc(C(C)(C)C)nn1-c1ccc(OCCN2CCCCC2)cc1` [(ce), 1-(3-(tert-butyl)-1-(4-(2-(piperidin-1-yl)ethoxy)phenyl)-1H-pyrazol-5-yl)-3-(2-(methylthio)-4-((3-oxo-3,4-dihydropyrido[2,3-b]pyrazin-8-yl)oxy)phenyl)urea], the Emax is reported as at least 75% and the EC50 is reported as under 500 nM.
`CSc1cc(Oc2ccnc(NCCN(C)C)c2)ccc1NC(=O)Nc1cc(C(C)(C)C)nn1-c1ccccc1` [(ck), 1-(3-(tert-butyl)-1-phenyl-1 H-pyrazol-5-yl)-3-(4-((2-((2-(dimethylamino)ethyl)amino)pyridin-4-yl)oxy)-2-(methylthio)phenyl)urea hydrochloride] was tested, and the Emax was at least 75% and the EC50 was 500 to 1000 nM.
`CSc1cc(Oc2ccnc3[nH]c(=O)cnc23)ccc1NC(=O)Nc1cc(C(C)(C)C)on1` [(dh), 1-(5-(tert-butyl)isoxazol-3-yl)-3-(2-(methylthio)-4-((3-oxo-3,4-dihydropyrido[2,3-b]pyrazin-8-yl)oxy)phenyl)urea] showed an Emax of at least 75% and an EC50 of 1000 to 5000 nM.
With `CC(C)(C)c1cc(NC(=O)Nc2ccc(Oc3ccccc3)cc2F)n(-c2ccccc2)n1` [(ac), 1-(3-(tert-butyl)-1-phenyl-1H-pyrazol-5-yl)-3-(2-fluoro-4-phenoxyphenyl)urea] the Emax was 50 to 75% and the EC50 was 1000 to 5000 nM.
In the case of `CCOC(=O)Nc1cc(Oc2ccc(NC(=O)Nc3ncc(C(C)(C)C)s3)c(SC)c2)ccn1` [(df), ethyl (4-(4-(3-(5-(tert-butyl)thiazol-2-yl)ureido)-3-(methylthio)phenoxy)pyridin-2-yl)carbamate], the Emax is reported as at least 75% and the EC50 is reported as under 500 nM.
`CSc1cc(Oc2ccnc3[nH]c(=O)cnc23)ccc1NC(=O)Nc1cc(C(C)(C)C)nn1-c1ccc(Cl)cc1` [(ao), 1-(3-(tert-butyl)-1-(4-chlorophenyl)-1H-pyrazol-5-yl)-3-(2-(methylthio)-4-((3-oxo-3,4-dihydropyrido[2,3-b]pyrazin-8-yl)oxy)phenyl)urea] gave an Emax of at least 75% and an EC50 of at least 5000 nM.
`CSc1cc(Oc2ccnc3[nH]c(=O)cnc23)ccc1NC(=O)Nc1cc(C(C)(C)C)nn1-c1cccc(Cl)c1` [(as), 1-(3-(tert-butyl)-1-(3-chlorophenyl)-1H-pyrazol-5-yl)-3-(2-(methylthio)-4-((3-oxo-3,4-dihydropyrido[2,3-b]pyrazin-8-yl)oxy)phenyl)urea] was tested, and the Emax was at least 75% and the EC50 was under 500 nM.
Work on `CSc1cc(Oc2ccnc3c2ncc(=O)n3C)ccc1NC(=O)Nc1cc(C(C)(C)C)nn1-c1ccccc1` [(au), 1-(3-(tert-butyl)-1-phenyl-1H-pyrazol-5-yl)-3-(4-((4-methyl-3-oxo-3,4-dihydropyrido[2,3-b]pyrazin-8-yl)oxy)-2-(methylthio)phenyl)urea] yielded an Emax of at least 75% and an EC50 of at least 5000 nM.
With `CCSc1cc(Oc2ccnc3[nH]c(=O)cnc23)ccc1NC(=O)Nc1cc(C(C)(C)C)nn1-c1ccccc1` [(am), 1-(3-(tert-butyl)-1-phenyl-1 H-pyrazol-5-yl)-3-(2-(ethylthio)-4-((3-oxo-3,4-dihydropyrido[2,3-b]pyrazin-8-yl)oxy)phenyl)urea] the Emax was at least 75% and the EC50 was under 500 nM.
With `CSc1cc(Oc2ccnc3[nH]c(=O)cnc23)ccc1NC(=O)Nc1cc(C(C)(C)C)nn1-c1ccc(C)nc1` [(bd), 1-(3-(tert-butyl)-1-(6-methylpyridin-3-yl)-1 H-pyrazol-5-yl)-3-(2-(methylthio)-4-((3-oxo-3,4-dihydropyrido[2,3-b]pyrazin-8-yl)oxy)phenyl)urea] the Emax was at least 75% and the EC50 was under 500 nM.
With `CC(C)(C)c1cc(NC(=O)Nc2ccc(Oc3ccncc3)cc2)n(-c2ccccc2)n1` [(bl), 1-(3-(tert-butyl)-1-phenyl-1 H-pyrazol-5-yl)-3-(4-(pyridin-4-yloxy)phenyl)urea] the Emax was 50 to 75% and the EC50 was 500 to 1000 nM.
For `CC(C)c1cc(NC(=O)Nc2ccc(Oc3ccnc4[nH]c(=O)cnc34)cc2F)n(-c2ccccc2)n1` [(b), 1-(2-fluoro-4-((3-oxo-3,4-dihydropyrido[2,3-b]pyrazin-8-yl)oxy)phenyl)-3-(3-isopropyl-1-phenyl-1 H-pyrazol-5-yl)urea], the Emax was 25 to 50% and the EC50 was at least 5000 nM.
Work on `CC(C)c1cc(Oc2ccnc3[nH]c(=O)cnc23)ccc1NC(=O)Nc1cc(C(C)(C)C)nn1-c1ccccc1` [(bk), 1-(3-(tert-butyl)-1-phenyl-1H-pyrazol-5-yl)-3-(2-isopropyl-4-((3-oxo-3,4-dihydropyrido[2,3-b]pyrazin-8-yl)oxy)phenyl)urea] yielded an Emax of at least 75% and an EC50 of at least 5000 nM.
For `CC(C)(C)c1cc(NC(=O)Nc2ccc(Oc3ccnc4[nH]c(=O)cnc34)cc2F)n(-c2cccnc2)n1` [(l), 1-(3-(tert-butyl)-1-(pyridin-3-yl)-1 H-pyrazol-5-yl)-3-(2-fluoro-4-((3-oxo-3,4-dihydropyrido[2,3-b]pyrazin-8-yl)oxy)phenyl)urea], the Emax was 50 to 75% and the EC50 was 500 to 1000 nM.
`CCOC(=O)Nc1cc(Oc2ccc(NC(=O)Nc3cc(C(C)(C)C)no3)c(SC)c2)ccn1` [(de), ethyl (4-(4-(3-(3-(tert-butyl)isoxazol-5-yl)ureido)-3-(methylthio)phenoxy)pyridin-2-yl)carbamate] gave an Emax of at least 75% and an EC50 of under 500 nM.
In the case of `CC(C)(C)c1cc(NC(=O)Nc2ccc(Oc3ccnc4[nH]c(=O)cnc34)nc2)n(-c2ccccc2)n1` [(t), 1-(3-(tert-butyl)-1-phenyl-1 H-pyrazol-5-yl)-3-(6-((3-oxo-3,4-dihydropyrido[2,3-b]pyrazin-8-yl)oxy)pyridin-3-yl)urea], the Emax is reported as 25 to 50% and the EC50 is reported as under 500 nM.
For `CSc1cc(Oc2ccnc3c2CCC(=O)N3)ccc1NC(=O)Nc1cc(C(C)(C)C)nn1-c1ccc(C)cc1` [(by), 1-(3-(tert-butyl)-1-(p-tolyl)-1H-pyrazol-5-yl)-3-(2-(methylthio)-4-((7-oxo-5,6,7,8-tetrahydro-1,8-naphthyridin-4-yl)oxy)phenyl)urea], the Emax was at least 75% and the EC50 was under 500 nM.
Work on `CNC(=O)c1ccc(Oc2cccc(NC(=O)Nc3cc(C(C)(C)C)nn3-c3ccccc3)c2)cn1` [(ab), 5-(3-(3-(3-(tert-butyl)-1-phenyl-1H-pyrazol-5-yl)ureido)phenoxy)-N-methylpicolinamide] yielded an Emax of 50 to 75% and an EC50 of 500 to 1000 nM.
Compound `CSc1cc(Oc2ccnc3[nH]c(=O)cnc23)ccc1NC(=O)Nc1cc(C(C)(C)C)nn1-c1ccc(CN2CCOCC2)cc1` [(dd), 1-(3-(tert-butyl)-1-(4-(morpholinomethyl)phenyl)-1 H-pyrazol-5-yl)-3-(2-(methylthio)-4-((3-oxo-3,4-dihydropyrido[2,3-b]pyrazin-8-yl)oxy)phenyl)urea] has an Emax of at least 75% and an EC50 of under 500 nM.
With `CSc1cc(Oc2ccnc3c2OCCN3)ccc1NC(=O)Nc1cc(C(C)(C)C)nn1-c1ccccc1` [(cy), 1-(3-(tert-butyl)-1-phenyl-1H-pyrazol-5-yl)-3-(4-((3,4-dihydro-2H-pyrido[3,2-b][1,4]oxazin-8-yl)oxy)-2-(methylthio)phenyl)urea] the Emax was at least 75% and the EC50 was 500 to 1000 nM.
`CSc1cc(Oc2ccnc(N)c2)ccc1NC(=O)Nc1cc(C(C)(C)C)nn1-c1ccccc1` [(bj), 1-(4-((2-aminopyridin-4-yl)oxy)-2-(methylthio)phenyl)-3-(3-(tert-butyl)-1-phenyl-1H-pyrazol-5-yl)urea hydrochloride] showed an Emax of at least 75% and an EC50 of at least 5000 nM.
For `CSc1cc(Oc2ccnc3c2CCC(=O)N3)ccc1NC(=O)Nc1cc(C(C)(C)C)no1` [(cz), 1-(3-(tert-butyl)isoxazol-5-yl)-3-(2-(methylthio)-4-((7-oxo-5,6,7,8-tetrahydro-1,8-naphthyridin-4-yl)oxy)phenyl)urea], the Emax was at least 75% and the EC50 was 500 to 1000 nM.
With `CCOC(=O)Nc1cc(Oc2ccc(NC(=O)Nc3ncc(C(C)(C)C)s3)c3ccccc23)ccn1` [(dc), ethyl (4-((4-(3-(5-(tert-butyl)thiazol-2-yl)ureido)naphthalen-1-yl)oxy)pyridin-2-yl)carbamate] the Emax was at least 75% and the EC50 was under 500 nM.
